Like-named read-outs stand apart in the source and are kept apart here.

In data set [1] the target is T1, KRAS G12C (Homo sapiens, UniProt P01116, G12C).
T1 construct: aa 2-169, expressed in E. coli; His-tag (TEV cleavable) (N); purchased Reaction Biology Corporation (RBC) SOS1: RBC cat #MSC-11-502; KRAS G12C: none printed; host or cells: E. coli
Kind of data set: KRAS G12C/SOS1 Nucleotide Exchange Assay (SOS1-mediated Bodipy-GDP to GTP exchange). The class given is biochemical. To be noted: substrate Bodipy-GDP/Kras G12C, 0.5% DMSO; 30 min pre-incubation at RT; dRFU analysis method for covalent inhibitors. The method, then: The excess Bodipy-GDP is separated from loaded protein using a spin desalting column.
• 1. […] Deliver compounds in 100% DMSO into buffer using acoustic technology (Echo550; nanoliter range). • 3. […] Prepare 3× (SOS1+GTP) solution in reaction buffer. • 5. Deliver 5 μL of SOS1+GTP solution into reactions wells (deliver GTP only to column 1 for no SOS1 control). • 6.
where Yraw is defined as fluorescence at time t, Ao is the average initial fluorescence with no SOS1, and M is the minimum fluorescence at the end of the reaction at the maximum SOS1.
The background subtracted signals (no SOS1 protein wells were used as background) were converted to % activity relative to DMSO controls. Data was analyzed using GraphPad Prism 4 with “sigmoidal dose-response (variable slope)”; 4 parameters with Hill Slope. The constraints were bottom (constant equal to 0) and top (must be less than 120).

A short description of data set [2]: Pharmacokinetics in male CD-1 mice. The data set is classed as in vivo. To be noted: for MRT inf: read-out: MRT0-inf; for MRT last: read-out: MRT0-last. As for the experimental part:
The pharmacokinetic profile of the Example 2 (compound la) was determined in male CD-1 mice by WuXi AppTec Co., Ltd., 1318 Wuzhong Avenue, Wuzhong District, Suzhou, China, 215104.

[3] abbreviates: mouse, 30 mg/kg PO, mean plasma.

T1 sequence (P01116 2-169 G12C): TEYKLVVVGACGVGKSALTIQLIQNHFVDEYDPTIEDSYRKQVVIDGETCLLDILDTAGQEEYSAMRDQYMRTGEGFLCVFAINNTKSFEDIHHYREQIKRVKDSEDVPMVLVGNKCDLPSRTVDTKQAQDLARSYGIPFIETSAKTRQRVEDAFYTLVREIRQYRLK

Broadly, the IC50 is the concentration needed to halve the response being measured. Read a low IC50 as greater potency. `C=CC(=O)N1CCN(c2nc(OC[C@@H]3CCCN3C)nc3cc(-c4cccc5cccc(Cl)c45)cnc23)C[C@@H]1CC#N` [Example 1, 2-((S)-1-Acryloyl-4-(7-(8-chloronaphthalen-1-yl)-2-(((S)-1-methylpyrrolidin-2-yl)methoxy)pyrido[3,2-d]pyrimidin-4-yl)piperazin-2-yl)acetonitrile]: the half-inhibitory concentration (IC50) in data set [1] was 27 nM.

A word on the AUC(0-inf): it is the area under the concentration-time curve extrapolated to infinity. A high value points to high exposure. By AUC(0-t) is commonly meant exposure summed from dosing to a finite time, without extrapolation to infinity. Low readings indicate less exposure, high ones more exposure. For orientation: clearance means a measure of how efficiently the substance is removed, as volume per time. A word on the half-life: it is how long it takes for the measured level to halve. The term Cmax denotes the highest concentration seen after dosing. As usually defined, the Tmax is the time at which the peak concentration occurs. By bioavailability is commonly meant dose-corrected exposure relative to a reference, in per cent. With `C=C(F)C(=O)N1CCN(c2nc(OC[C@@H]3CCCN3C)nc3cc(-c4cccc5cccc(Cl)c45)cnc23)C[C@@H]1CC#N` [Example 2, 2-((S)-4-(7-(8-Chloronaphthalen-1-yl)-2-(((S)-1-methylpyrrolidin-2-yl)methoxy)pyrido[3,2-d]pyrimidin-4-yl)-1-(2-fluoroacryloyl)piperazin-2-yl)acetonitrile], in data set [2] (3 mg/kg IV, mean plasma), the AUCExtra was determined as 9.23%, the AUMCExtra worked out at 35.2% and the Tlast was 8.00 h. In data set [2] (30 mg/kg PO, mean plasma), this compound showed an AUCExtra of 17.1%, an AUMCExtra of 43.8% and a Tlast of 8.00 h. In data set [2] (mouse, 3 mg/kg IV, mean plasma), this compound registered an AUC(0-inf) of 2450 ng·h/mL, an exposure AUC(0-t) of 2220 ng·h/mL, a C0 of 1270 ng/mL and a clearance of 20.4 mL/min/kg. In data set [2] (mouse, 3 mg/kg IV, mean plasma), the MRT inf is 2.81 h and the MRT last was found to be 2 h. Moreover, the half-life in data set [2] (mouse, 3 mg/kg IV, mean plasma, Rsq_adj 0.828 (<0.9, might not be accurately estimated)) is 1.89 h. The Vd in data set [2] (mouse, 3 mg/kg IV, mean plasma, read-out: Vdss) was determined as 3.44 L/kg. In data set [2] (setting [3]), the AUC(0-inf) came out at 7070 ng·h/mL, the AUC(0-t) was determined as 5860 ng·h/mL, the highest level (Cmax) was 1220 ng/mL and the Tmax stood at 1 h. In data set [2] (setting [3]), the half-life was 2.88 h, the MRT inf stood at 4.75 h and the MRT last came out at 3.22 h. In data set [2] (mouse, plasma, 30 mg/kg PO vs 3 mg/kg IV, calculated from AUC0-inf with nominal dose, read-out: Bioavailability (% F)), the bioavailability is 28.8%. In addition, in data set [1], the IC50 amounted to 63 nM.

Values taken from patent US20240140948A1, “PYRIDOPYRIMIDINE DERIVATIVES AS KRAS INHIBITORS” (BETA PHARMA, INC., priority 2021, published 2024).
